Measured values reported in US20130266636A1, “METHODS FOR BLOCKING CELL PROLIFERATION AND TREATING DISEASES AND CONDITIONS RESPONSIVE TO CELL GROWTH INHIBITION” (THE REGENTS OF THE UNIVERSITY OF CALIFORNIA, priority 2010, published 2013).

Tests used:
[1] = target: T1, phospho-S338 CRAF (Mus musculus, UniProt Q99N57); assay: Phospho-S338 CRAF staining in orthotopic R40P murine pancreatic cancer tissues; type: in vivo, mice; conditions: systemic KG5, 3 days
T1 construct: immunofluorescent staining of phospho-S338 CRAF in orthotopic pancreatic cancer tissues untreated or systemically treated with KG5; from tissue; host or cells: orthotopic R40P murine pancreatic tumours in mice
Description: FIG. 5 illustrates the effect of KG5 on orthotopic R40P murine pancreatic tumor cells after three days, as further discussed in Example 1, below.
FIG. 5 illustrates an immunofluorescent staining of phospho-S338 CRAF in orthotopic pancreatic cancer tissues untreated or systemically treated with KG5 for 3 days.

[2] = system: p21-activated kinase (PAK); conditions: inferred from MEK S298; cited from earlier work
[3] = system: human colon (HCT-116), pancreatic (Mia-Paca2, FG, XPA-1, BXPC3), breast (MDA-MB-231) and brain (U251) cancer cell lines; assay: Cell cycle analysis of proliferating tumor cell lines treated with KG5; type: cell-based; conditions: all proliferating tumor cell lines tested
Description: FIG. 40. Allosteric inhibition of RAF arrests proliferating cells at pro-metaphase. FIG. 40(a) Cell cycle analysis and G2/M quantification of human colon (HCT-116), pancreatic (Mia-Paca2, FG, XPA-1, BXPC3), breast (MDA-MB-231) and brain (U251) cancer cell lines untreated or treated for 20 hours with 5 μM of KG5. Error bars represent s.d. (n=4); * two tailed p value=0.0023 using Mann Whitney U test. FIG. 40(b) HCT-116 cells were cultured under low (30%) or high (90%) confluency and treated with 1 μM KG5 for 20 hours. […] Error bars represent s.d. (n=3); * two tailed p value=0.0021 using Mann Whitney U test. FIG. 40(c) HCT-116 and XPA-1 cells were treated for 20 hours with 1 μM of KG5, stained for α-tubulin/DNA, and cells arrested in pro-metaphase were quantified by confocal microscopy. Error bars represent s.d. (n=3); * two tailed p value=0.0008 using Mann Whitney U test. Lysates from the same cells were also analyzed by immunoblotting for the expression of the mitotic marker phospho-Histone H3 (inset). Data are representative of three independent experiments.
Cell cycle analysis was performed by flow cytometry following propidium iodide staining. Briefly, cells were harvested, fixed with ice cold methanol, treated for 45 min with 10 μg/ml of RNase and resuspended in PBS containing 10 μg/ml of PI, and analyzed by flow cytometry. […]

[4] = system: U-87 human glioblastoma cells; assay: Cells in pro-metaphase in orthotopic brain tumor xenografts; type: in vivo, mice; conditions: systemic KG5 50 mg/Kg, after three days
Description: Phosphorylation of CRAF on serine 338 has been linked to cell proliferation survival as well as breast cancer progression^9-11,14-16. To determine whether KG5 could similarly regulate phospho-5338 RAF in tumors, we analyzed orthotopic […] and brain tumor tissues for the presence of this marker before or after systemic delivery of the drug.
Tumors were generated by injection of RFP-labeled U-87 human glioblastoma cells (10^5 tumorcells in 2 μl of sterile PBS) into the brain of 6-8 week old female nude mice. Tumors were established for 3 weeks before beginning dosing. Mice were dosed with vehicle (10% HS-15) or 50 mg/kg KG5 (i.p. bid) for 3 days prior to harvest. Alternatively, U-87 cells stably expressing WT CRAF or the phospho-mimetic S338D CRAF mutant were injected into the brain of 6-8 week old female nude mice. Brains were harvested at day 15 and fluorescence images recorded using the IVIS-200™ imaging system (Xenogen Corp., Hopkinton, Mass.). Tumor sizes were measured as a function of fluorescence intensity using the ROI function of the IVIS Living Image Software. […]

[5] = system: HCT-116 cells; assay: G2/M arrest in HCT-116 cells expressing WT or S338D CRAF; type: cell-based, human; conditions: 1 μM KG5, 18 hours

SMILES: CSc1nc(N)cc(Oc2ccc(-c3nnc(Nc4cccc(C(F)(F)F)c4)[nH]3)cc2)n1 [KG5]
- phospho-S338 CRAF in orthotopic pancreatic cancer tissues [1]: inhibits serine 338 phosphorylation of CRAF
- PAK activity [2]: does not directly inhibit PAK activity
- mitotic arrest and cell death [3]: mitotic arrest at pro-metaphase followed by cell death
- phospho-S338 CRAF [3]: inhibition of phospho-S338 CRAF
- cells at pro-metaphase in orthotopic brain tumor tissues [4]: accumulation of cells at pro-metaphase
- G2/M arrest in cells expressing phospho-mimetic S338D CRAF [5]: showed resistance to KG5
